This is an account of results in patent US20260167619A2, “INDOLINE COMPOUNDS AND DERIVATIVES AS EGFR INHIBITORS” (BeOne Medicines I GmbH, priority 2020, published 2026).

Assay [1] addresses T1, EGFR (aa668-1210, Invitrogen) (Homo sapiens, UniProt P00533).
T1 construct: EGFR (aa668-1210, Invitrogen); purchased Invitrogen
Put plainly: Biochemical EGFR inhibition assay (TR-FRET), wild-type EGFR. The conditions noted are these: ATP at Km, 15 min pre-incubation, 60 min reaction; read-out: WT (Km ATP) IC50. As for the experimental part: (§1) Compounds were tested for inhibition of kinase activity against EGFR (aa668-1210, Invitrogen), EGFR(L858R_T790M_C797S) (aa695-end, Invitrogen) and EGFR(Dell9_T790M_C797S) (aa 669-1210, in house) in assays based on time-resolved fluorescence-resonance energy transfer (TR-FRET) methodology. Recombinant EGFR, EGFR(L858R_T790M_C797S) or EGFR(Dell9_T790M_C797S) was pre-incubated with the compounds at room temperature for 15 minutes in an assay buffer containing 50 mM HEPES pH7.5, 10 mM MgCl2, 2 mM DTT, 1 mM EGTA, 0.1% BSA, 0.01% Tween-20. The reactions were initiated by the addition of ATP (at the concentration of ATP Km) and substrate Biotin-Poly GT. After reaction at room temperature for 60 minutes, stop/detection solution was added. The stop/detection solution contained Eu^3+ cryptate-conjugated mouse monoclonal antibody (PT66) anti-phosphotyrosine and XL665-conjugated streptavidin in buffer containing 50 mM HEPES pH7.0, 800 mM KF, 20 mM EDTA, and 0.1% BSA. Plates were sealed and incubated at room temperature for 1 hour, and the TR-FRET signals (ratio of fluorescence emission at 665 nm over emission at 620 nm with excitation at 337 nm wavelength) were recorded on a PHERAstar FS plate reader (BMG Labtech). The residual enzyme activity in presence of increasing concentrations of compounds was calculated based on the ratio of fluorescence at 665 nm to that at 620 nm. The IC50 for each compound was derived from fitting the data to the four-parameter logistic equation by Dotmatics or Graphpad Prism software.
(§2) These biochemical EGFR enzyme form compound dose-response assays quantify the kinase activity via phosphorylation of a tagged poly-GT substrate. The results of the assay are provided as IC50 values.
Background: TR-FRET usually uses a lanthanide donor and a delayed reading to cut background.

Assay [2] concerns the target T2, EGFR(L858R_T790M_C797S) (aa695-end, Invitrogen) (Homo sapiens, UniProt P00533, C797S/L858R/T790M).
T2 construct: purchased Invitrogen
Put plainly: Biochemical EGFR inhibition assay (TR-FRET), L858R/T790M/C797S mutant. The conditions noted are these: ATP at Km, 15 min pre-incubation, 60 min reaction; read-out: LR_TM_CS (Km ATP) IC50. As for the experimental part: as §1, §2

The target in assay [3] is EGFR(Dell9_T790M_C797S) (aa 669-1210, in house) (Homo sapiens, UniProt P00533, T790M/C797S, form not given). Put plainly: Biochemical EGFR inhibition assay (TR-FRET), Del19/T790M/C797S mutant. The conditions noted are these: ATP at Km, 15 min pre-incubation, 60 min reaction; read-out: Del_TM_CS (Km ATP) IC50. As for the experimental part: as §1, §2
Chain of EGFR(Dell9_T790M_C797S) (aa 669-1210, in house) (P00533 with tags, fused parts or gaps DEL746-750/T790M/C797S, form open): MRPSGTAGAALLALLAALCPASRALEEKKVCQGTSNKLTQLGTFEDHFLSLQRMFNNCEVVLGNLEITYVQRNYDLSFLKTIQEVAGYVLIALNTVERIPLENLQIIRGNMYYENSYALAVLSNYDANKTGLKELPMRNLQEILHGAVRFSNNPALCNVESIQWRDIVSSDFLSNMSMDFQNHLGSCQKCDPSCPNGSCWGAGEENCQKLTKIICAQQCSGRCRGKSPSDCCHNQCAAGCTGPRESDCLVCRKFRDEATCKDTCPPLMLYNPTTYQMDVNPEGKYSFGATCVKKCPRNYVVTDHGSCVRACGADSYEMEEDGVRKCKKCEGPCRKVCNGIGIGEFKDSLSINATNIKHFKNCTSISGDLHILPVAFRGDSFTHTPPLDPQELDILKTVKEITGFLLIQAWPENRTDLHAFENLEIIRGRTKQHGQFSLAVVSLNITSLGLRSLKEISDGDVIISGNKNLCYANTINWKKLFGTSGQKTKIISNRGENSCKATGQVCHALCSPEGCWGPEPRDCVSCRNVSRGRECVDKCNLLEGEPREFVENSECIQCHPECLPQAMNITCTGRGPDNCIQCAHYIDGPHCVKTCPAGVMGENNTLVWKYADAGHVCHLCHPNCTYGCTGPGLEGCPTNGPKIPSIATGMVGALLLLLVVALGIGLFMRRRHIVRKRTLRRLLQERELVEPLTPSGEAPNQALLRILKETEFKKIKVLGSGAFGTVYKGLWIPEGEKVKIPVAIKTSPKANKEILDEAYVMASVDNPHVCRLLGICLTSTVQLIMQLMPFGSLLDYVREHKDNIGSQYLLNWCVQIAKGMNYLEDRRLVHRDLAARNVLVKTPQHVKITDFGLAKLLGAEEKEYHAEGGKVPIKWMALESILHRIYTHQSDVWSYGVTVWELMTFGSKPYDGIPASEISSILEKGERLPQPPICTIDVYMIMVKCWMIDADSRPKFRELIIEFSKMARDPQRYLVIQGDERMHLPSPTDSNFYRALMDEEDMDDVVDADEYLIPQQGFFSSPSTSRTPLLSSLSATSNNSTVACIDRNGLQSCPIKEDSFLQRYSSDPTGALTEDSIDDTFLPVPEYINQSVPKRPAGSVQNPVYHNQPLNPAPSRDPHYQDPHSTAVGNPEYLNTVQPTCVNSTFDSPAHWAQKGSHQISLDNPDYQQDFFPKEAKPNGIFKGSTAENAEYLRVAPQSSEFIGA

T1 sequence (P00533 668-1210): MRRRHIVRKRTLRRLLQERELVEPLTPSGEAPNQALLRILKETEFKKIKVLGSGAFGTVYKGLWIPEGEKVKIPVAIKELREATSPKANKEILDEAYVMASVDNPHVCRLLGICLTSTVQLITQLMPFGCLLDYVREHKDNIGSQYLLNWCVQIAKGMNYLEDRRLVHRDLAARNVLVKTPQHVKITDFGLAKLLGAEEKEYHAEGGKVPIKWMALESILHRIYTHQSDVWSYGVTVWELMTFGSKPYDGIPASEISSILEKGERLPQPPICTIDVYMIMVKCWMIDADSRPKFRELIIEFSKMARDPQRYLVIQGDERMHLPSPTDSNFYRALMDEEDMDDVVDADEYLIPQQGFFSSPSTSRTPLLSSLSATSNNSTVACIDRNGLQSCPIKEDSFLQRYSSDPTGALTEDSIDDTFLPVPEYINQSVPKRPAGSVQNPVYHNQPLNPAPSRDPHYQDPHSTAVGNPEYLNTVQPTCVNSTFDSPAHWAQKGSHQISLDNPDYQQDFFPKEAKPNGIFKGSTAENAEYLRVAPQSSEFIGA
T2 sequence (P00533 695-1210 T790M/C797S/L858R): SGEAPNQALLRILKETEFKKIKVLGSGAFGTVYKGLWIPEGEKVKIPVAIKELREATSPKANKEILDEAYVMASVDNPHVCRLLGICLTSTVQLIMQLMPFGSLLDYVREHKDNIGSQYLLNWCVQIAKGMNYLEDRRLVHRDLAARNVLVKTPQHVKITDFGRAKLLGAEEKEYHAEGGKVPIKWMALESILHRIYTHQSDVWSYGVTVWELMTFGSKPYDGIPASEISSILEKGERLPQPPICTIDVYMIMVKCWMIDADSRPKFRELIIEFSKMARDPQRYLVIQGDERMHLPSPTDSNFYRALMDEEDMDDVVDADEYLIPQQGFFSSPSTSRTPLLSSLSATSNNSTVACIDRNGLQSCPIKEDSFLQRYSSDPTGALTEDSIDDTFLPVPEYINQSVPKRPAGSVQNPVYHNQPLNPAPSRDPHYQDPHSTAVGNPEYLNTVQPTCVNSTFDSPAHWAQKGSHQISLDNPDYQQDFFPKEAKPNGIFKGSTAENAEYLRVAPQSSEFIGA

Regarding `COc1cc(N2CCC(N3CCN(C)CC3)CC2)c(C)cc1Nc1ncc(Cl)c(Nc2cccc3c2N(S(C)(=O)=O)CC32CC2)n1` [Example 188, 5-chloro-N2-(2-methoxy-5-methyl-4-(4-(4-methylpiperazin-1-yl)piperidin-1-yl)phenyl)-N4-(1′-(methylsulfonyl)spiro[cyclopropane-1,3′-indolin]-7′-yl)pyrimidine-2,4-diamine], the half-maximal inhibitory concentration (IC50) was found to be 0.5 nM in assay [1], 0.3 nM in assay [2] and 0.7 nM in assay [3].

Consider `CC1Cc2c(N3CCC(N(C)C)CC3)ccc(Nc3ncc(Br)c(Nc4cccc5c4N(S(C)(=O)=O)CC5)n3)c2O1` (stereo not drawn) [Example 65, 5-bromo-N^2-(4-(4-(dimethylamino)piperidin-1-yl)-2-methyl-2,3-dihydrobenzofuran-7-yl)-N^4-(1-(methylsulfonyl)indolin-7-yl)pyrimidine-2,4-diamine], for which the half-inhibitory concentration (IC50) was 5.5 nM in assay [1], 0.48 nM in assay [2] and 0.63 nM in assay [3].

In the case of `CN1CCN(c2c(F)cc(Nc3ncc(Br)c(Nc4cccc5c4N(S(C)(=O)=O)CC5)n3)c3c2CCO3)CC1` [Example 58, 5-bromo-N^2-(5-fluoro-4-(4-methylpiperazin-1-yl)-2,3-dihydrobenzofuran-7-yl)-N^4-(1-(methylsulfonyl)indolin-7-yl)pyrimidine-2,4-diamine], the half-maximal inhibitory concentration (IC50) turned out to be 10.3 nM in assay [1], 1.7 nM in assay [2] and 1.57 nM in assay [3].

In the case of `COc1cc(N2CCN(C)[C@@H](C)C2)c(C)cc1Nc1ncc(Br)c(Nc2cccc3c2N(S(C)(=O)=O)CC3)n1` [Example 43, (S)-5-bromo-N^2-(4-(3,4-dimethylpiperazin-1-yl)-2-methoxy-5-methylphenyl)-N^4-(1-(methylsulfonyl)indolin-7-yl)pyrimidine-2,4-diamine], the half-maximal inhibitory concentration (IC50) in assay [1] was 12.1 nM; in assay [2] it was 0.5 nM; in assay [3] it was 0.5 nM.

For `COc1cc(N2CCC(N3CCN(C)CC3)CC2)c(C)cc1Nc1ncc(Br)c(Nc2cccc3c2N(S(C)(=O)=O)CC32CC2)n1` [Example 181, 5-bromo-N2-(2-methoxy-5-methyl-4-(4-(4-methylpiperazin-1-yl)piperidin-1-yl)phenyl)-N4-(1′-(methylsulfonyl)spiro[cyclopropane-1,3′-indolin]-7′-yl)pyrimidine-2,4-diamine], the figures for the half-maximal inhibitory concentration (IC50) in assay [1], in assay [2] and in assay [3] were 0.9 nM, 0.3 nM and 0.6 nM, respectively.

Consider `COc1cc(N2[C@@H]3CC[C@H]2CN(C)C3)ccc1Nc1nc(Nc2cccc3c2N(S(C)(=O)=O)CC3)c2cc[nH]c2n1` [Example 111, N^2-(2-methoxy-4-((1R,5S)-3-methyl-3,8-diazabicyclo[3.2.1]octan-8-yl)phenyl)-N^4-(1-(methylsulfonyl)indolin-7-yl)-7H-pyrrolo[2,3-d]pyrimidine-2,4-diamine], for which the IC50 in assay [1] amounted to 146 nM; in assay [2], 2.8 nM; in assay [3], 11.1 nM.

For `COc1cc(-c2cnn(CCN(C)C)c2)ccc1Nc1nc(Nc2cccc3c2N(S(C)(=O)=O)CC3)c2cc[nH]c2n1` [Example 113, N^2-(4-(1-(2-(dimethylamino)ethyl)-1H-pyrazol-4-yl)-2-methoxyphenyl)-N^4-(1-(methylsulfonyl)indolin-7-yl)-7H-pyrrolo[2,3-d]pyrimidine-2,4-diamine], the IC50 was found to be 1470 nM in assay [1], 16 nM in assay [2] and 18.5 nM in assay [3].

For `CN(C)C1CCN(c2c(F)cc(Nc3ncc(Br)c(Nc4cccc5c4N(S(C)(=O)=O)CC5)n3)c3c2CCO3)CC1` [Example 59, 5-bromo-N^2-(4-(4-(dimethylamino)piperidin-1-yl)-5-fluoro-2,3-dihydrobenzofuran-7-yl)-N^4-(1-(methylsulfonyl)indolin-7-yl)pyrimidine-2,4-diamine], the results for the half-inhibitory concentration (IC50) in assay [1], in assay [2] and in assay [3] were 1.1 nM, 0.2 nM and 0.24 nM, respectively.

One may read the IC50 as the concentration that gives 50% inhibition.
